Assays:
[1] = refractive index (Na D-line) (dimensionless); xn = mol fraction of the nth substance listed; conditions: 101 kPa, Liquid, Standard Abbe refractometry
[2] = xn = mol fraction of the nth substance listed; conditions: 101 kPa, Liquid; for viscosity: Capillary tube (Ostwald / Ubbelohde) method; for mass density: Vibrating tube method

CCCCCC(C)O (centres undefined) [2-heptanol] + CC#N
Conditions	mass density, [2] [kg/m3]	refractive index, [1]	viscosity, [2] [mPa·s]
293.15 K, x2 = 0	817.18	1.4206	6.52
293.15 K, x2 = 0.1142	814.97	1.417	4.326
293.15 K, x2 = 0.1947	813.16	1.4145	3.337
293.15 K, x2 = 0.251	811.78	1.4124	2.77
293.15 K, x2 = 0.3491	809.24	1.4094	2.133
293.15 K, x2 = 0.4525	806.32	1.4042	1.584
293.15 K, x2 = 0.5436	803.52	1.3986	1.239
293.15 K, x2 = 0.6702	798.9	1.3881	0.8636
293.15 K, x2 = 0.7574	795.18	1.3793	0.6732
293.15 K, x2 = 0.877	789.27	1.3637	–
293.15 K, x2 = 0.9588	784.77	1.3516	0.3857
298.15 K, x2 = 0	813.33	1.4188	5.33
298.15 K, x2 = 0.1142	811.07	1.4158	3.583
298.15 K, x2 = 0.1947	809.19	1.4146	2.821
298.15 K, x2 = 0.251	807.74	1.4129	2.402
298.15 K, x2 = 0.3491	805	1.4094	1.853
298.15 K, x2 = 0.4525	802.07	1.4039	1.395
298.15 K, x2 = 0.5436	799.12	1.3979	1.106
298.15 K, x2 = 0.6702	794.43	1.3873	0.7855
298.15 K, x2 = 0.7574	790.57	1.3781	0.6191
298.15 K, x2 = 0.877	784.26	1.3629	–
298.15 K, x2 = 0.9588	779.64	1.3503	0.3652
303.15 K, x2 = 0	809.44	1.4165	4.301
303.15 K, x2 = 0.1142	807.06	1.4154	3.03
303.15 K, x2 = 0.1947	805.14	1.4147	2.409
303.15 K, x2 = 0.251	803.62	1.4135	2.066
303.15 K, x2 = 0.3491	800.93	1.4093	1.619
303.15 K, x2 = 0.4525	797.79	1.4029	1.251
303.15 K, x2 = 0.5436	794.69	1.3973	0.9893
303.15 K, x2 = 0.6702	789.88	1.3863	0.7174
303.15 K, x2 = 0.7574	786	1.3774	0.5762
303.15 K, x2 = 0.877	779.5	1.362	–
303.15 K, x2 = 0.9588	774.36	1.3481	0.3483
308.15 K, x2 = 0	805.5	1.4143	3.528
308.15 K, x2 = 0.1142	803.17	1.4139	2.578
308.15 K, x2 = 0.1947	801.12	1.413	2.072
308.15 K, x2 = 0.251	799.49	1.4116	1.816
308.15 K, x2 = 0.3491	796.53	1.4079	1.466
308.15 K, x2 = 0.4525	793.31	1.4022	1.112
308.15 K, x2 = 0.5436	790.11	1.3958	0.8985
308.15 K, x2 = 0.6702	785.23	1.3845	0.6625
308.15 K, x2 = 0.7574	781.16	1.3744	0.539
308.15 K, x2 = 0.877	774.15	1.3576	0.4454
308.15 K, x2 = 0.9588	768.93	1.3452	0.3326
